Consider two molecules from US6555124B1, “Use of (meth)acrylic acid copolymers to increase the permeability of mucous membranes” (BASF Aktiengesellschaft, priority 1996, dated 2003).

In one data set the test system is caco-2 cell tissue. Description: Permeation rate of tracer/test substances through caco-2 cell monolayers (Transwell) with polymer added apically. The source says: (§1) This cell line forms on polycarbonate membranes a tissue assemblage which is very similar in appearance and protein composition to small intestinal […]. In the Transwell system (from Costar, Bodenheim, Germany), this artificial endothelial tissue separates two chambers, which are filled with medium, into the apical and the basolateral compartment. This design allows the permeation of a substance through the caco-2 tissue layer to be determined. […] An improvement in permeability is indicated by the reversible opening of the tight junctions.
(§2) Caco-2 cells were cultivated in DMEM (Dulbeccos Modified Eagle's Medium, from Gibco BRL, Eggenstein, Germany) with 10% FCS (fetal calf serum), 1% L-glutamine and 4.5 mg/ml glucose at 37° C. with 5% CO2 and 95% relative humidity. After trypsinization, the cells were spread at a density of 3×10^5 cells/cm^2 on transwell polycarbonate filters. Cells between the 30th and 50th passage were used to form monolayers. The monolayers were employed in the experiment 15-21 days (medium change every three days) after spreading of the cells.
(§3) Before the experiment, the caco-2 cell tissue was washed in the Transwell filter inserts with PBS (phosphate buffer saline). Then the apical compartment was filled with EBSS (Earl's buffered salt solution, pH 6) and the basolateral compartment was filled with DMEM. After addition of the polymer to be tested, which had been neutralized to pH 7, [Kollicoat® MAE 30D (ethyl acrylate/methacrylic acid 1:1, BASF), Eudragit® L100 (methacrylic acid/methyl methacrylate 1:1, Röhm), Eudragit® S100 (methacrylic acid/methyl methacrylate 1:2, Röhm)] in a concentration of 0.5-3% by weight and of the tracer substance into the apical compartment, samples were taken after 24 hours, and the permeation rate of the tracer substance was determined.
(§4) The experiments were analyzed by fluorescence spectrophotometry (Spex Fluorolog 1680: excitation wavelength: 488 nm, emission wavelength: 513 nm), and in the case of C22H32N6O4 by HPLC (column material: Vidac C-18; mobile phase: water/acetonitrile/0.1% trifluoroacetic acid; detection: 240 nm), the experimental results are compiled in Table 1. Measurements which were not done have been indicated by “−”.

The next data set is described as follows: in vitro. To be noted: human, Caco-2, pH 6.
Source text: as §1, §2, §3, §4

For `O=C(CCCCCNC(=O)CCCC[C@@H]1SC[C@@H]2NC(=O)N[C@@H]21)NCCCCCNC(=S)Nc1ccc2c(c1)C(=O)OC21c2ccc(O)cc2Oc2cc(O)ccc21` [Fluorescein-biotin, (biotin-amidocaproylamido)-(pentylthioureidyl)-fluorescein], the Permeation rate with caco-2 cell tissue (Control (no polymer), caco-2 monolayer, apical EBSS pH 6, samples after 24 hours) was 2.3 (cm/sec) · 10^−8; in the data set with caco-2 cell tissue (with Eudragit L 100 2.0% by weight (neutralized to pH 7) apical, 24 hours), 4.8 (cm/sec) · 10^−8; in the data set on caco-2 cell tissue (with Eudragit S 100 2.0% by weight (neutralized to pH 7) apical, 24 hours), 7.1 (cm/sec) · 10^−8; in the data set with caco-2 cell tissue (with Kollicoat MAE 30 D 0.5% by weight (neutralized to pH 7) apical, 24 hours), 2.3 (cm/sec) · 10^−8; in the data set with caco-2 cell tissue (with Kollicoat MAE 30 D 1.0% by weight (neutralized to pH 7) apical, 24 hours), 5.8 (cm/sec) · 10^−8; in the data set on caco-2 cell tissue (with Kollicoat MAE 30 D 1.5% by weight (neutralized to pH 7) apical, 24 hours), 20 (cm/sec) · 10^−8.

Usually Papp A→B stands for the apparent permeability from the apical to the basolateral side of a cell layer. In the data set “in vitro”, `N=C(N)c1ccc(CNC(=O)[C@@H]2CCCN2C(=O)[C@H](NCC(=O)O)C2CCCCC2)cn1` [C22H32N6O4, HOOC—CH2—(D)-Cha-Pro-NH-3-(6-Am)-Pico] displayed a Papp A→B at 24 h of 0.56 ×10⁻⁶ cm/s. Further, the Permeation rate in the data set on caco-2 cell tissue (human, Caco-2, 24 h, pH 6) is 56 (cm/sec) · 10^−8.
